This is an account of results in US6818203B2, “Use of perfluoroalkyl-containing metal complexes as contrast media in MR-imaging for visualization of plaque, tumors and necroses” (Schering Aktiengesellschaft, priority 2000, dated 2004).

Data set [1] can be described thus: hydrodynamic micelle diameter (2 Rh) by photon correlation spectroscopy (PCS). Type of data set: physicochemical. The source says: The amphiphilic compounds according to the invention are combined in solution and are present as aggregates. The size (2 Rh) of such aggregates (e.g., micelles, rods, wafers, etc.) can be determined with the aid of […] (PCS).
As a second criterion, the hydrodynamic micelle diameter 2 Rh, which must be >1 nm, is therefore used. Those perfluoroalkyl-containing metal complexes according to the invention whose 2 RH is ≧3, quite especially preferably >4 nm, are especially suitable.
(§1) Both the determination of the CMC and the photon correlation spectroscopy are described in H.-D. Dörfler, “Grenzflächen- und Kolloidchemie [Interface and Colloid Chemistry],” Weinheim, New York, Basel, Cambridge, Tokyo, VSH 1994.

Data set [2] concerns iliac lymph nodes. Put plainly: lymph node visualization (MRT) after intravenous administration in rats. Type of data set: in vivo. As to conditions: for signal in healthy lymph node tissue (T1-weighted gradient-echo images): very shortly after injection. The method, then:
By way of example, the pictures in FIG. 8 show MR images of iliac lymph nodes precontrast and up to 60 minutes after intravenous administration of 100 μmol of Gd/kg of body weight of metal complex X in rats. […] The enhancement was thus 263% at the time of 15 minutes p.i. and 254% at the time of 60 minutes p.i.
By way of example, the pictures in FIG. 11 show MR images of iliac lymph nodes precontrast and up to 60 minutes after intravenous administration of 200 μmol of Gd/kg of body weight of metal complex V in rats. […] The enhancement was thus 147% at the time of 15 minutes p.i. and 230% at the time of 60 minutes p.i.
By way of example, the pictures in FIG. 17 show MR images of iliac lymph nodes precontrast and up to 60 minutes after intravenous administration of 200 μmol of Gd/kg of body weight of metal complex III in rats. […] The enhancement was thus 320% at the time of 15 minutes p.i. and 401% at the time of 60 minutes p.i.

The subject of data set [3] is iliac lymph nodes. Put plainly: lymph node visualization (MRT) after intravenous administration in VX2-tumor-bearing rabbits. Type of data set: in vivo. To be noted: 200 μmol of Gd/kg i.v.; for signal in zones within the lymph node diagnosed as metastases (confirmed histologically): early images. The method, then: The pictures of FIG. 6 show MR images of an iliac lymph node and of a primary tumor (VX2-tumor implanted i.m.) precontrast, 60 minutes and 20 hours after intravenous administration of 100 μmol of Gd/kg of body weight of metal complex I in rabbits. […] The enhancement in the healthy lymph node tissue was 382% at the time of 15 minutes p.i. and 419% at the time of 60 minutes p.i. […] The ratio of signal intensities of healthy lymph node tissue to metastasis was 3.0 at the time of 15 minutes p.i. and 3.4 at the time of 60 minutes p.i. […] The enhancement in the healthy lymph node tissue was 246% at the time of 15 minutes p.i. and 282% at the time of 60 minutes p.i. […] The ratio of signal intensities of healthy lymph node tissue to metastasis was 2.5 at the time of 15 minutes p.i. and 1.7 at the time of 60 minutes p.i. […] The enhancement in the healthy lymph node tissue was 297% at the time of 10 minutes p.i. and 269% at the time of 60 minutes p.i. […] The ratio of signal intensities of healthy lymph node tissue to metastasis was 5.1 at the time of 10 minutes p.i. and 1.9 at the time of 60 minutes p.i. […] The enhancement in the healthy lymph node tissue was 195% at the time of 15 minutes p.i. and 233% at the time of 60 minutes p.i. […] The ratio of signal intensities of healthy lymph node tissue to metastasis was 1.9 at the time of 15 minutes p.i. and 1.8 at the time of 60 minutes p.i.

The nature of data set [4]: proton relaxivity in plasma (R^1), Minispec P 20. Type of data set: physicochemical. As to conditions: 40° C., 0.47 tesla, bovine plasma. The method, then:
As a third criterion, the proton-relaxivity in plasma (R^1) at 40° C. and a field strength of 0.47 tesla is used. The relaxivity, which is indicated in [l/mmol·s], is the quantitative measurement for the shortening of relaxation time T^1 of the protons. For the purpose according to the invention, the relaxivity must be as high as possible and >10 l/mmol·s, preferably >13 l/mmol·s, especially preferably >15 l/mmol·s.
Relaxivity R^1 [l/mmol·s] of the MR-contrast media according to the invention was determined with the Minispec P 20 device of the Bruker Company. The measurements were taken at 40° C. and a field strength of 0.47 tesla. Eight measuring points were recorded by each T1-sequence: 180°-TI-90°, inversion recovery. As a medium, bovine plasma of the Kraeber Company was used. The contrast medium concentrations [mmol/l] in the batches were between 0.30 and 1.16.

In a further data set the test system is myocardial infarction. Put plainly: infarction visualization (MRT) after intravenous administration in rats with acutely induced myocardial infarction. It is filed as in vivo. The source says: The successful induction of an acute myocardial infarction was confirmed by means of NBT-staining.
A short description of data set [5]: critical micelle formation concentration (CMC) by tensiometry. Type of data set: physicochemical. As for the experimental part:
In aqueous systems, these amphiphilic molecules show the properties that are characteristic of standard surfactants (such as, e.g., sodium dodecylsulfate, SDS). They thus reduce the surface tension of water. By tensiometry, the so-called CMC (critical micelle formation concentration in mol/l) can be determined. In this respect, the surface tension is determined based on the concentration of the substance to be measured. The CMC can be calculated from the plot of the surface tension function (c) that is obtained. The critical micelle formation concentration of the compounds according to the invention must be <10^−3 mol/l, preferably <10^−4 mol/l.
as §1

For data set [6], the system named is primary tumor (VX2-tumor implanted i.m.). Put plainly: tumor visualization (MRT) after intravenous administration in VX2-tumor-bearing rabbits. It is filed as in vivo. As to conditions: 200 μmol of Gd/kg i.v.; for enhancement of the primary tumor (especially the periphery): 15 minutes p.i. As for the experimental part:
The pictures of FIG. 6 show MR images of an iliac lymph node and of a primary tumor (VX2-tumor implanted i.m.) precontrast, 60 minutes and 20 hours after intravenous administration of 100 μmol of Gd/kg of body weight of metal complex I in rabbits. […]

Where [7] appears, read: 15 minutes p.i., 200 μmol of Gd/kg i.v.
[8] abbreviates: 60 minutes p.i., 200 μmol of Gd/kg i.v.

With `O=C([O-])CN1CCN(CC(=O)[O-])CCN(CC(O)CNC(=O)CCCC(=O)N2CCN(C(F)(F)C(F)(F)C(F)(F)C(F)(F)C(F)(F)C(F)(F)C(F)(F)C(F)(F)F)CC2)CCN(CC(=O)[O-])CC1.[Gd+3]` (centres unmarked) [metal complex III], the “2 Rh (hydrodynamic micelle diameter)” value in data set [1] stood at 3.2 nm. The “enhancement in lymph node tissue” value with iliac lymph nodes [2] (setting [7]) was determined as 320%; with iliac lymph nodes [2] (setting [8]), 401%. Further, the “signal in healthy lymph node tissue (T1-weighted gradient-echo images)” value (from here on “signal in healthy lymph node tissue”) in the data set with iliac lymph nodes [2] (200 μmol of Gd/kg i.v.) and with iliac lymph nodes [3] was “strong signal rise” each time. Also, the “enhancement in the healthy lymph node tissue” value worked out at 195% with iliac lymph nodes [3] (15 minutes p.i.) and 233% in the data set on iliac lymph nodes [3] (60 minutes p.i.). Further, the “ratio of signal intensities of healthy lymph node tissue to metastasis” value (from here on “ratio of signal intensities … to metastasis”) in the data set on iliac lymph nodes [3] (15 minutes p.i.) worked out at 1.9; in the data set on iliac lymph nodes [3] (60 minutes p.i.), 1.8. Further, in the data set with iliac lymph nodes [3], the “signal in zones within the lymph node diagnosed as metastases (confirmed histologically)” value (from here on “signal … (confirmed histologically)”) is recorded as “without signal rise”. The “R^1 Plasma (relaxivity)” value in data set [4] amounted to 24.9 mmol⁻¹ s⁻¹. For the same molecule, in the data set with myocardial infarction (22 hours after i.v. 100 μmol of Gd/kg), the “signal in the infarction area (T1-weighted spin-echo images)” value (“signal in the infarction area” below) was “strong signal rise”. For the same molecule, the “CMC (critical micelle formation concentration)” value (shortened to “CMC”) in data set [5] is 7.06e-06 mol/L. The “enhancement of the primary tumor (especially the periphery)” value (shortened to “enhancement … (especially the periphery)”) in data set [6] was 232%.

`CC(C(=O)NCC(=O)N(CCOCCC(F)(F)C(F)(F)C(F)(F)C(F)(F)C(F)(F)C(F)(F)C(F)(F)C(F)(F)F)CC(O)CO)N1CCN(CC(=O)[O-])CCN(CC(=O)[O-])CCN(CC(=O)[O-])CC1.[Gd+3]` (centres unmarked) [metal complex V]: the “2 Rh (hydrodynamic micelle diameter)” value in data set [1] is listed as 4.4 nm. Besides, the results for the “enhancement in lymph node tissue” value with iliac lymph nodes [2] (setting [7]) and in the data set with iliac lymph nodes [2] (setting [8]) were 147% and 230%, respectively. In addition, the “signal in healthy lymph node tissue” value in the data set with iliac lymph nodes [2] (200 μmol of Gd/kg i.v.) and with iliac lymph nodes [3] was “strong signal rise” throughout. Also, the “enhancement in the healthy lymph node tissue” value with iliac lymph nodes [3] (15 minutes p.i.) worked out at 246%; in the data set on iliac lymph nodes [3] (60 minutes p.i.), 282%. In addition, the “ratio of signal intensities … to metastasis” value worked out at 2.5 with iliac lymph nodes [3] (15 minutes p.i.) and 1.7 in the data set with iliac lymph nodes [3] (60 minutes p.i.). In the data set with iliac lymph nodes [3], the “signal … (confirmed histologically)” value is listed as “without signal rise”. For the same molecule, in data set [4], the “R^1 Plasma (relaxivity)” value came out at 19.6 mmol⁻¹ s⁻¹. Also, the “signal in the infarction area” value in the data set with myocardial infarction (24 hours after i.v. 100 μmol of Gd/kg) is “strong signal rise”. In addition, the “CMC” value in data set [5] was found to be 3.9e-06 mol/L. Moreover, the “enhancement … (especially the periphery)” value in data set [6] worked out at 350%. In addition, the “enhancement of the primary tumor (center of the tumor)” value (“enhancement … (center of the tumor)” below) in data set [6] (24 hours p.i.) was determined as 106%.

`CC(C(=O)NCC(=O)NCC(=O)N1CCN(C(=O)CNC(=O)CNC(=O)C(C)N2CCN(CC(=O)[O-])CCN(CC(=O)[O-])CCN(CC(=O)[O-])CC2)CCN(C(=O)COCCC(F)(F)C(F)(F)C(F)(F)C(F)(F)C(F)(F)C(F)(F)C(F)(F)C(F)(F)F)CCN(C(=O)CNC(=O)CNC(=O)C(C)N2CCN(CC(=O)[O-])CCN(CC(=O)[O-])CCN(CC(=O)[O-])CC2)CC1)N1CCN(CC(=O)[O-])CCN(CC(=O)[O-])CCN(CC(=O)[O-])CC1.[Gd+3].[Gd+3].[Gd+3]` (centres unmarked) [metal complex XIV, 1,4,7-Tris{1,4,7-tris(N-(carboxylatomethyl)-10-[N-1-methyl-3,6-diaza-2,5,8-trioxooctane-1,8-diyl]-1,4,7,10-tetraazacyclododecane, Gdcomplex}-10-N-2H,2H,4H,4H,5H,5H-3-oxa-perfluoro-tridecanoyl]-1,4,7,10-tetraazacyclo-dodecane, Gd complex]: the “2 Rh (hydrodynamic micelle diameter)” value in data set [1] is recorded as 2.2 nm. Also, in the data set on iliac lymph nodes [3], the “signal in healthy lymph node tissue” value is listed as “strong signal rise” and the “signal … (confirmed histologically)” value is given as “without signal rise”. In the data set with iliac lymph nodes [3] (10 minutes p.i.), the “enhancement in the healthy lymph node tissue” value is given as 297% and the “ratio of signal intensities … to metastasis” value is given as 5.1. In addition, in the data set on iliac lymph nodes [3] (60 minutes p.i.), the “enhancement in the healthy lymph node tissue” value is recorded as 269% and the “ratio of signal intensities … to metastasis” value amounted to 1.9. The “R^1 Plasma (relaxivity)” value in data set [4] was determined as 19.5 mmol⁻¹ s⁻¹. Moreover, the “signal in the infarction area” value in the data set with myocardial infarction (3 hours after i.v. 100 μmol of Gd/kg) is “strong signal rise”. In data set [5], the “CMC” value amounted to 0.00089 mol/L. Also, the “enhancement … (especially the periphery)” value in data set [6] stood at 594%. Besides, in data set [6] (120 hours p.i.), the “enhancement … (center of the tumor)” value was 162%.

On to `COCCN(CCOCCC(F)(F)C(F)(F)C(F)(F)C(F)(F)C(F)(F)C(F)(F)C(F)(F)C(F)(F)F)C(=O)CNC(=O)C(C)N1CCN(CC(=O)[O-])CCN(CC(=O)[O-])CCN(CC(=O)[O-])CC1.[Gd+3]` (centres unmarked) [metal complex X], for which, in data set [1], the “2 Rh (hydrodynamic micelle diameter)” value is given as 5.4 nm. In addition, the “enhancement in lymph node tissue” value is recorded as 263% in the data set with iliac lymph nodes [2] (15 minutes p.i., 100 μmol of Gd/kg i.v.) and 254% with iliac lymph nodes [2] (60 minutes p.i., 100 μmol of Gd/kg i.v.). Besides, the “signal in healthy lymph node tissue” value in the data set on iliac lymph nodes [2] (100 μmol of Gd/kg i.v.) and in the data set on iliac lymph nodes [3] was “strong signal rise” each time. Also, the “enhancement in the healthy lymph node tissue” value with iliac lymph nodes [3] (15 minutes p.i.) is 382%; in the data set on iliac lymph nodes [3] (60 minutes p.i.), 419%. For the same molecule, the “ratio of signal intensities … to metastasis” value in the data set on iliac lymph nodes [3] (15 minutes p.i.) is 3.0; with iliac lymph nodes [3] (60 minutes p.i.) it was 3.4. For the same molecule, the “signal … (confirmed histologically)” value in the data set on iliac lymph nodes [3] is reported as “without signal rise”. Moreover, the “R^1 Plasma (relaxivity)” value in data set [4] is 25.7 mmol⁻¹ s⁻¹. Moreover, the “signal in the infarction area” value in the data set on myocardial infarction (6 hours after i.v. 100 μmol of Gd/kg) is “strong signal rise”. Besides, the “CMC” value in data set [5] amounted to 7.9e-06 mol/L. In addition, in data set [6], the “enhancement … (especially the periphery)” value is given as 277%. The “enhancement … (center of the tumor)” value in data set [6] (24 hours p.i.) is reported as 217%.
